Measurements: ChEMBL document CHEMBL1154963, “Part 2: Structure-activity relationship (SAR) investigations of fused pyrazoles as potent, selective and orally available inhibitors of p38alpha mitogen-activated protein kinase” (Bioorg Med Chem Lett, 2010)

Experiments:
Assay type in all cases: ADME, organism-based
[1] = Half life in Sprague-Dawley rat at 2 mg/kg, iv; design: dose 2 mg/kg, route intravenous; conditions: in vivo
[2] = Volume of distribution at steady state in Sprague-Dawley rat at 2 mg/kg, iv; design: dose 2 mg/kg, route intravenous; conditions: in vivo, read-out: Vdss
[3] = Clearance in Sprague-Dawley rat at 2 mg/kg, iv; design: dose 2 mg/kg, route intravenous; conditions: in vivo
[4] = AUC (0 to infinity) in Sprague-Dawley rat at 2 mg/kg, po; design: time infinity, dose 2 mg/kg, route oral; conditions: plasma
[5] = Oral bioavailability in Sprague-Dawley rat at 2 mg/kg; conditions: in vivo

| half-life [1] [h] | Vd [2] [L/kg] | clearance [3] [mL/min/kg] | AUC(0-inf) [4] [ng·h/mL] | bioavailability [5] [%] | SMILES |
| --- | --- | --- | --- | --- | --- |
| 3.6 | 1.1 | 3.67 | 6830 | 75 | O=C(NC1CC1)c1ccc(Cl)c(Nc2nncc3c2cnn3-c2c(F)cccc2F)c1 |
| 2.2 | 1.4 | 7.83 | 3880 | 91 | Cc1nnc(Nc2cc(C(=O)NC3CC3)ccc2Cl)c2cnn(-c3c(F)cccc3F)c12 |
| 3.5 | 0.89 | 2.67 | 6550 | 53 | O=C(NC1CC1)c1ccc(Cl)c(Nc2nncc3c2cnn3-c2ccc(F)cc2F)c1 |
| 2.8 | 1.6 | 9.67 | 671 | 19 | Cc1ccc(C(=O)NC2CC2)cc1Nc1nncc2c1cnn2-c1c(F)cccc1F |
